According to the supplement of paper PMC10307832:

How the values were obtained:
Assay in all cases: relative viability (nuclei count vs DMSO), 5 days (fraction); higher = more cells survive
CX-5461 + Decitabine = compound: Cc1cnc(CNC(=O)c2c(=O)c3ccc(N4CCCN(C)CC4)nc3n3c2sc2ccccc23)cn1 [CX-5461] + Nc1ncn([C@H]2C[C@H](O)[C@@H](CO)O2)c(=O)n1 [Decitabine] (partner 2 µM)
How it was run: (§1)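 Cells from lung cancer lines were seeded into 1536-well plates and, one day later, dosed by pin tool. Treatments were either a single drug or a fixed dose of an anchor drug with five library-drug doses (not always all listed) in √10 steps. After 5 days, nuclei were stained in a one-step fixation (final 0.05% Triton X-100, 1% formaldehyde, 1 ug/ml Hoechst) and counted on 4× images, and relative viability is the treated-to-vehicle nuclei ratio, as the median of duplicate plates.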

CX-5461 + Trametinib = compound: Cc1cnc(CNC(=O)c2c(=O)c3ccc(N4CCCN(C)CC4)nc3n3c2sc2ccccc23)cn1 [CX-5461] + CC(=O)Nc1cccc(-n2c(=O)n(C3CC3)c(=O)c3c(Nc4ccc(I)cc4F)n(C)c(=O)c(C)c32)c1 [Trametinib] (partner 0.02 µM)
How it was run: as §1

CX-5461 + Phenformin = compound: Cc1cnc(CNC(=O)c2c(=O)c3ccc(N4CCCN(C)CC4)nc3n3c2sc2ccccc23)cn1 [CX-5461] + N=C(N)NC(=N)NCCc1ccccc1 [Phenformin] (partner 250 µM)
How it was run: as §1

IMD-0354 + Navitoclax = compound: O=C(Nc1cc(C(F)(F)F)cc(C(F)(F)F)c1)c1cc(Cl)ccc1O [IMD-0354] + CC1(C)CCC(c2ccc(Cl)cc2)=C(CN2CCN(c3ccc(C(=O)NS(=O)(=O)c4ccc(N[C@H](CCN5CCOCC5)CSc5ccccc5)c(S(=O)(=O)C(F)(F)F)c4)cc3)CC2)C1 [Navitoclax] (partner 0.5 µM)
How it was run: as §1

Cell Line	relative viability (CX-5461 + Decitabine; first compound 0.01 µM)	relative viability (CX-5461 + Decitabine; first compound 0.03162 µM)	relative viability (CX-5461 + Decitabine; first compound 0.1 µM)	relative viability (CX-5461 + Decitabine; first compound 0.3162 µM)	relative viability (CX-5461 + Decitabine; first compound 1 µM)	relative viability (CX-5461 + Trametinib; first compound 0.01 µM)	relative viability (CX-5461 + Trametinib; first compound 0.03162 µM)	relative viability (CX-5461 + Trametinib; first compound 0.1 µM)	relative viability (CX-5461 + Trametinib; first compound 0.3162 µM)	relative viability (CX-5461 + Trametinib; first compound 1 µM)	relative viability (CX-5461 + Phenformin; first compound 0.01 µM)	relative viability (CX-5461 + Phenformin; first compound 0.03162 µM)	relative viability (CX-5461 + Phenformin; first compound 0.1 µM)	relative viability (CX-5461 + Phenformin; first compound 0.3162 µM)	relative viability (CX-5461 + Phenformin; first compound 1 µM)	relative viability (IMD-0354 + Navitoclax; first compound 0.04 µM)	relative viability (IMD-0354 + Navitoclax; first compound 0.1265 µM)	relative viability (IMD-0354 + Navitoclax; first compound 0.4 µM)	relative viability (IMD-0354 + Navitoclax; first compound 1.265 µM)	relative viability (IMD-0354 + Navitoclax; first compound 4 µM)
COR-L23	0.424	0.424	0.371	0.489	0.219	0.779	0.727	0.556	0.435	0.366	0.472	0.431	0.414	0.426	0.301	0.891	0.961	0.375	0.0982	0.147
COR-L 105	0.668	0.612	0.609	0.512	0.436	0.448	0.47	0.429	0.388	0.352	0.496	0.557	0.414	0.405	0.306	0.731	0.684	0.644	0.374	0.269
NCI-H1395	0.764	0.673	0.805	0.653	0.532	1.09	0.821	1.07	0.741	0.71	0.473	0.426	0.437	0.341	0.396	1.15	1.24	0.931	0.389	0.311
201T	0.861	0.849	0.885	0.814	0.834	0.706	0.73	0.693	0.75	0.721	0.468	0.431	0.464	0.441	0.388	1.27	1.25	0.77	1	0.752
HCC-44	0.946	1.02	0.887	0.939	0.837	0.921	1.25	1.11	1.14	1.05	0.179	0.205	0.145	0.229	0.136	0.953	0.951	0.446	0.203	0.215
NCI-H596	1.14	0.994	1.06	1.05	0.872	0.763	0.819	0.73	0.836	0.756	0.754	0.869	0.879	0.723	0.637	0.96	0.854	0.777	0.982	0.476
H3255	0.634	0.611	0.73	–	0.624	0.614	0.639	0.671	–	0.558	0.373	0.367	0.374	0.301	0.338	0.394	0.715	0.408	0.089	0.144
NCI-H647	0.443	0.461	0.325	0.417	0.15	0.589	0.331	0.494	0.451	0.218	0.518	0.575	0.401	0.364	0.24	1.47	1.57	0.521	0.198	0.068
